Data reported in US8440612B2, “Controlling giardiosis” (Bayer Intellectual Property GmbH, priority 2008, dated 2013).
Several values for one entry are separate records, joined by “and”; a condition that tells them apart may be missing. Equal values may be shown once.

Key:
Giardia duodenalis [1] = assay: Giardia cyst excretion in infected Beagle puppies, single oral dose (Biological Example 1); assay type: in vivo
Source text: Beagle puppies aged 10-11 weeks which had 11 days to settle in the animal centre before being infected were infected orally with 50 000 Giardia duodenalis cysts. The cysts for the infection were obtained with the aid of a sucrose gradient from the faeces of dogs which excreted Giardia cysts and stored at 4 degrees centigrade in Bacto-Casitone medium for no longer than 2 weeks. From day 10 after the infection, the puppies were kept in individual cages in order to collect the daily total faeces for each individual. The quantitative determination of the cyst excretion was performed in the 4 days prior to treatment (day −3 to 0), and the puppies were divided randomly into two groups, taking into consideration the cyst excretion. […] The quantitative determination of the cyst excretion was continued from day 1 to day 8 after the treatment.
Results: The activity was calculated using the following formula:
(§1) Method: The quantitative determination of the cyst excretion was performed using a modified version of Hewlett (18): 4 g faeces were dissolved in 100 ml of water, sieved and allowed to sediment. The sediment was applied to a 1 M sucrose gradient (specific gravity 1.13), and the cysts, which were concentrated at the sucrose/water boundary layer after the centrifugation were pipetted off. After a wash step followed by centrifugation, the cysts in the pellet were counted. To this end, an aliquot of the pellet was counted under the microscope, and the number of cysts per g faeces was calculated.

Giardia duodenalis [2] = assay: Giardia cyst excretion in infected Beagle puppies, oral dose on three successive days (Biological Example 2); assay type: in vivo
Procedure: as §1
Beagle puppies aged 11-15 weeks which had at least 2 weeks to settle in the animal centre before being infected were infected orally with 50 000 Giardia duodenalis cysts before the beginning of the study. The cysts for the infection were obtained with the aid of a sucrose gradient from the faeces of dogs which excreted Giardia cysts and stored at 4 degrees centigrade in Bacto-Casitone medium for no longer than 2 weeks. 18 puppies which excreted Giardia cysts were included in the study and kept in individual cages in order to collect the daily total faeces. The quantitative determination of the cyst excretion was performed as an […], with the modification that the aliquot of the pellet was counted under the microscope with the aid of a Fuchs-Rosenthal hematocytometer. The quantitative determination of the cyst excretion was performed for 4 days before the treatment (day −3 to 0), and the puppies were divided randomly into three groups, taking into consideration the cyst excretion. […] The 6 dogs of the control group remained untreated. The quantitative determination of the cyst excretion was continued from day 1 to day 8 after the treatment.

## CC1CS(=O)(=O)CCN1N=Cc1ccc([N+](=O)[O-])o1 (stereo not shown) [nifurtimox]
Giardia duodenalis [1]; calculated activity on cyst excretion versus infected untreated control, day 1 to 8, single oral dose 50 mg/kg, 50 mg/kg
  Activity: 90.4%
Giardia duodenalis [1]; group line Σ (7 dogs), day 1 after treatment, 50 mg/kg oral on day D0
  Σ Giardia cyst excretion D1: 1516 cysts per g faeces
Giardia duodenalis [1]; group line Σ (7 dogs), day 2 after treatment, 50 mg/kg oral on day D0
  Σ Giardia cyst excretion D2: 26 cysts per g faeces
Giardia duodenalis [1]; group line Σ (7 dogs), day 3 after treatment, 50 mg/kg oral on day D0
  Σ Giardia cyst excretion D3: 32 cysts per g faeces
Giardia duodenalis [1]; group line Σ (7 dogs), day 4 after treatment, 50 mg/kg oral on day D0
  Σ Giardia cyst excretion D4: 473 cysts per g faeces
Giardia duodenalis [1]; group line Σ (7 dogs), day 5 after treatment, 50 mg/kg oral on day D0
  Σ Giardia cyst excretion D5: 629 cysts per g faeces
Giardia duodenalis [1]; group line Σ (7 dogs), day 6 after treatment, 50 mg/kg oral on day D0
  Σ Giardia cyst excretion D6: 2523 cysts per g faeces
Giardia duodenalis [1]; group line Σ (7 dogs), day 7 after treatment, 50 mg/kg oral on day D0
  Σ Giardia cyst excretion D7: 2403 cysts per g faeces
Giardia duodenalis [1]; group line Σ (7 dogs), day 8 after treatment, 50 mg/kg oral on day D0
  Σ Giardia cyst excretion D8: 3127 cysts per g faeces
Giardia duodenalis [1]; group line Σ (7 dogs), day of treatment, 50 mg/kg oral on day D0
  Σ Giardia cyst excretion D0: 8996 cysts per g faeces
Giardia duodenalis [1]; group line Σ (7 dogs), day −1, before treatment, 50 mg/kg oral on day D0
  Σ Giardia cyst excretion D−1: 39966 cysts per g faeces
Giardia duodenalis [1]; group line Σ (7 dogs), day −2, before treatment, 50 mg/kg oral on day D0
  Σ Giardia cyst excretion D−2: 38482 cysts per g faeces
Giardia duodenalis [1]; group line Σ (7 dogs), day −3, before treatment, 50 mg/kg oral on day D0
  Σ Giardia cyst excretion D−3: 9762 cysts per g faeces
Giardia duodenalis [1]; group, after treatment, 50 mg/kg oral once on day 0
  Σ Giardia cyst excretion Day 1 to 8: 1341 cysts per g faeces
Giardia duodenalis [1]; group, before treatment, 50 mg/kg oral once on day 0
  Σ Giardia cyst excretion Day −3 to 0: 24302 cysts per g faeces
Giardia duodenalis [1]; individual dogs, day 1 after treatment, 50 mg/kg oral on day D0, 50 mg/kg
  Giardia cyst excretion D1: 504 cysts per g faeces and 4928 cysts per g faeces and 152 cysts per g faeces and 0 cysts per g faeces (2×) and 2636 cysts per g faeces and 2391 cysts per g faeces
Giardia duodenalis [1]; individual dogs, day 2 after treatment, 50 mg/kg oral on day D0, 50 mg/kg
  Giardia cyst excretion D2: 0 cysts per g faeces (6×) and 180 cysts per g faeces
Giardia duodenalis [1]; individual dogs, day 3 after treatment, 50 mg/kg oral on day D0, 50 mg/kg
  Giardia cyst excretion D3: 0 cysts per g faeces (6×) and 224 cysts per g faeces
Giardia duodenalis [1]; individual dogs, day 4 after treatment, 50 mg/kg oral on day D0, 50 mg/kg
  Giardia cyst excretion D4: 590 cysts per g faeces and 0 cysts per g faeces (2×) and 652 cysts per g faeces and 424 cysts per g faeces and 1451 cysts per g faeces and 193 cysts per g faeces
Giardia duodenalis [1]; individual dogs, day 5 after treatment, 50 mg/kg oral on day D0, 50 mg/kg
  Giardia cyst excretion D5: 1700 cysts per g faeces and 1094 cysts per g faeces and 0 cysts per g faeces (2×) and 137 cysts per g faeces and 1318 cysts per g faeces and 153 cysts per g faeces
Giardia duodenalis [1]; individual dogs, day 6 after treatment, 50 mg/kg oral on day D0, 50 mg/kg
  Giardia cyst excretion D6: 3693 cysts per g faeces and 2000 cysts per g faeces and 1201 cysts per g faeces and 353 cysts per g faeces and 0 cysts per g faeces and 4102 cysts per g faeces and 6315 cysts per g faeces
Giardia duodenalis [1]; individual dogs, day 7 after treatment, 50 mg/kg oral on day D0, 50 mg/kg
  Giardia cyst excretion D7: 8881 cysts per g faeces and 431 cysts per g faeces and 1873 cysts per g faeces and 608 cysts per g faeces and 191 cysts per g faeces and 4615 cysts per g faeces and 223 cysts per g faeces
Giardia duodenalis [1]; individual dogs, day 8 after treatment, 50 mg/kg oral on day D0, 50 mg/kg
  Giardia cyst excretion D8: 3294 cysts per g faeces and 517 cysts per g faeces and 14181 cysts per g faeces and 0 cysts per g faeces and 1621 cysts per g faeces and 1768 cysts per g faeces and 508 cysts per g faeces
Giardia duodenalis [1]; individual dogs, day of treatment, 50 mg/kg oral on day D0, 50 mg/kg
  Giardia cyst excretion D0: 4397 cysts per g faeces and 8456 cysts per g faeces and 0 cysts per g faeces and 375 cysts per g faeces and 19681 cysts per g faeces and 16419 cysts per g faeces and 13644 cysts per g faeces
Giardia duodenalis [1]; individual dogs, day −1, before treatment, 50 mg/kg oral on day D0, 50 mg/kg
  Giardia cyst excretion D−1: 1306 cysts per g faeces and 14238 cysts per g faeces and 2264 cysts per g faeces and 788 cysts per g faeces and 189275 cysts per g faeces and 45725 cysts per g faeces and 26163 cysts per g faeces
Giardia duodenalis [1]; individual dogs, day −2, before treatment, 50 mg/kg oral on day D0, 50 mg/kg
  Giardia cyst excretion D−2: 907 cysts per g faeces and 923 cysts per g faeces and 5897 cysts per g faeces and 905 cysts per g faeces and 186750 cysts per g faeces and 45672 cysts per g faeces and 28322 cysts per g faeces
Giardia duodenalis [2]; calculated activity on cyst excretion versus infected untreated control, day 3 to 8, 50 mg/kg oral on days 0, 1 and 2, 50 mg/kg
  Activity: 98.6%
Giardia duodenalis [2]; group line Σ (6 dogs), D0, day of treatment, 50 mg/kg oral on days D0, D1 and D2
  Σ Giardia cyst excretion D0: 61098 cysts per g faeces
Giardia duodenalis [2]; group line Σ (6 dogs), D1, day of treatment, 50 mg/kg oral on days D0, D1 and D2
  Σ Giardia cyst excretion D1: 872 cysts per g faeces
Giardia duodenalis [2]; group line Σ (6 dogs), D2, day of treatment, 50 mg/kg oral on days D0, D1 and D2
  Σ Giardia cyst excretion D2: 211 cysts per g faeces
Giardia duodenalis [2]; group line Σ (6 dogs), D3, after the treatment, 50 mg/kg oral on days D0, D1 and D2
  Σ Giardia cyst excretion D3: 0 cysts per g faeces
Giardia duodenalis [2]; group line Σ (6 dogs), D4, after the treatment, 50 mg/kg oral on days D0, D1 and D2
  Σ Giardia cyst excretion D4: 135 cysts per g faeces
Giardia duodenalis [2]; group line Σ (6 dogs), D5, after the treatment, 50 mg/kg oral on days D0, D1 and D2
  Σ Giardia cyst excretion D5: 638 cysts per g faeces
Giardia duodenalis [2]; group line Σ (6 dogs), D6, after the treatment, 50 mg/kg oral on days D0, D1 and D2
  Σ Giardia cyst excretion D6: 339 cysts per g faeces
Giardia duodenalis [2]; group line Σ (6 dogs), D7, after the treatment, 50 mg/kg oral on days D0, D1 and D2
  Σ Giardia cyst excretion D7: 54 cysts per g faeces
Giardia duodenalis [2]; group line Σ (6 dogs), D8, after the treatment, 50 mg/kg oral on days D0, D1 and D2
  Σ Giardia cyst excretion D8: 399 cysts per g faeces
Giardia duodenalis [2]; group line Σ (6 dogs), day −1, before treatment, 50 mg/kg oral on days D0, D1 and D2
  Σ Giardia cyst excretion D−1: 37547 cysts per g faeces
Giardia duodenalis [2]; group line Σ (6 dogs), day −2, before treatment, 50 mg/kg oral on days D0, D1 and D2
  Σ Giardia cyst excretion D−2: 28220 cysts per g faeces
Giardia duodenalis [2]; group line Σ (6 dogs), day −3, before treatment, 50 mg/kg oral on days D0, D1 and D2
  Σ Giardia cyst excretion D−3: 49751 cysts per g faeces
Giardia duodenalis [2]; group, after treatment, 50 mg/kg oral on days 0, 1 and 2
  Σ Giardia cyst excretion Day 3 to 8: 261 cysts per g faeces
Giardia duodenalis [2]; group, before treatment, 50 mg/kg oral on days 0, 1 and 2
  Σ Giardia cyst excretion Day: −3 to 0: 44154 cysts per g faeces
Giardia duodenalis [2]; individual dogs, D0, day of treatment, 50 mg/kg oral on days D0, D1 and D2, 50 mg/kg
  Giardia cyst excretion D0: 60420 cysts per g faeces and 675 cysts per g faeces and 89880 cysts per g faeces and 86 cysts per g faeces and 103442 cysts per g faeces and 112084 cysts per g faeces
Giardia duodenalis [2]; individual dogs, D1, day of treatment, 50 mg/kg oral on days D0, D1 and D2, 50 mg/kg
  Giardia cyst excretion D1: 809 cysts per g faeces and 187 cysts per g faeces and 974 cysts per g faeces and 0 cysts per g faeces and 1261 cysts per g faeces and 2000 cysts per g faeces
Giardia duodenalis [2]; individual dogs, D2, day of treatment, 50 mg/kg oral on days D0, D1 and D2, 50 mg/kg
  Giardia cyst excretion D2: 741 cysts per g faeces and 0 cysts per g faeces (4×) and 527 cysts per g faeces
Giardia duodenalis [2]; individual dogs, D3, after the treatment, 50 mg/kg oral on days D0, D1 and D2
  Giardia cyst excretion D3: 0 cysts per g faeces
Giardia duodenalis [2]; individual dogs, D4, after the treatment, 50 mg/kg oral on days D0, D1 and D2, 50 mg/kg
  Giardia cyst excretion D4: 0 cysts per g faeces (4×) and 185 cysts per g faeces and 622 cysts per g faeces
Giardia duodenalis [2]; individual dogs, D5, after the treatment, 50 mg/kg oral on days D0, D1 and D2, 50 mg/kg
  Giardia cyst excretion D5: 229 cysts per g faeces and 0 cysts per g faeces (3×) and 2299 cysts per g faeces and 1299 cysts per g faeces
Giardia duodenalis [2]; individual dogs, D6, after the treatment, 50 mg/kg oral on days D0, D1 and D2, 50 mg/kg
  Giardia cyst excretion D6: 0 cysts per g faeces (3×) and 98 cysts per g faeces and 1842 cysts per g faeces and 93 cysts per g faeces
Giardia duodenalis [2]; individual dogs, D7, after the treatment, 50 mg/kg oral on days D0, D1 and D2, 50 mg/kg
  Giardia cyst excretion D7: 0 cysts per g faeces (4×) and 87 cysts per g faeces and 237 cysts per g faeces
Giardia duodenalis [2]; individual dogs, D8, after the treatment, 50 mg/kg oral on days D0, D1 and D2, 50 mg/kg
  Giardia cyst excretion D8: 517 cysts per g faeces and 0 cysts per g faeces (3×) and 975 cysts per g faeces and 903 cysts per g faeces
Giardia duodenalis [2]; individual dogs, day −1, before treatment, 50 mg/kg oral on days D0, D1 and D2, 50 mg/kg
  Giardia cyst excretion D−1: 25515 cysts per g faeces and 3472 cysts per g faeces and 37203 cysts per g faeces and 8528 cysts per g faeces and 91293 cysts per g faeces and 59273 cysts per g faeces
Giardia duodenalis [2]; individual dogs, day −2, before treatment, 50 mg/kg oral on days D0, D1 and D2, 50 mg/kg
  Giardia cyst excretion D−2: 10685 cysts per g faeces and 8278 cysts per g faeces and 1618 cysts per g faeces and 133 cysts per g faeces and 79689 cysts per g faeces and 68914 cysts per g faeces
